From US10538442B2, “Water treatment” (priority 2015, dated 2020)

Legend:
Desulfovibrio vulgaris = assay: Log 10 reduction of viable count of anaerobic bacterium in dosed suspension (serial dilution into API RP 38 media vials); format: cell-based; settings: for Log 10 Reduction Anaerobes: TDS 30,000 mg l^-1, 5 = complete kill; for effectiveness against anaerobes (in words): short contact times, summary of Table 1, combination compared with chlorine dioxide alone
Protocol: (§1) A suspension of Desulfovibrio vulgaris plus Enterobacter aerogenes bacteria containing from 1×10^5 to 1×10^6 cells/mL was prepared in sterile pH 8 phosphate buffer containing sodium chloride to give the desired total dissolved solids (TDS) concentration. Aliquots of this suspension were dosed with the indicated concentrations of the compounds (a) and (b) with the concentrations being measured as ppm by weight of the stated composition in the dosed suspension. The mixtures were allowed to stand at room temperature. At the designated contact times, each mixture was sampled to determine the total number of viable cells of both Desulfovibrio vulgaris and Enterobacter aerogenes by serial 10-fold dilution into API RP 38 media vials and anaerobic acid producing media vials, respectively. The vials were incubated at 37° C. for 72 hours. Results were recorded as log10 reduction in the viable count versus the control.
(§2) Aqueous media inoculated with anaerobe and aerobe culture and having a TDS of 30,000 mg l^−1 was treated with treatment agents comprising: (i) tri n-butyl n-tetradecyl phosphonium chloride (TTPC); (ii) chlorine dioxide; or (ill) a combination of TTPC and chlorine dioxide.
(§3) TTPC was used in the form of Bellacide 350, an aqueous composition of TTPC and water consisting of water and 50% by weight of TTPC available from BWA Water Additives.
(§4) Chlorine dioxide was used in the form of CDG Solution 3000 a 0.3% aqueous solution of chlorine dioxide available from CDG Environmental, LLC.
(§5) The efficacy of the treatment agents was evaluated by measuring the Log 10 Reduction of the anaerobic bacterium Desulfovibrio vulgaris and the facultative anaerobic bacterium Enterobacter aerogenes after contact times of 10 minutes, 30 minutes and 60 minutes as detailed in Table 1. For TTPC the stated ppm value relates to the amount of TTPC added (active). For the chlorine dioxide the stated ppm relates to the amount of free residual of chlorine dioxide.

Enterobacter aerogenes = assay: Log 10 reduction of viable count of facultative anaerobic bacterium in dosed suspension (serial dilution into anaerobic acid producing media vials); format: cell-based; settings: for Log 10 Reduction Facultative Anaerobes: TDS 30,000 mg l^-1, 6 = complete kill; for effectiveness against aerobes (in words): short contact times, summary of Table 1, combination compared with chlorine dioxide alone
Protocol: as §1, §2, §3, §4, §5

[1] = contact time 10 minutes, chlorine dioxide 0.25 ppm free residual
[2] = contact time 10 minutes, chlorine dioxide 0.5 ppm free residual
[3] = contact time 30 minutes, chlorine dioxide 0.25 ppm free residual
[4] = contact time 30 minutes, chlorine dioxide 0.5 ppm free residual
[5] = contact time 60 minutes, chlorine dioxide 0.25 ppm free residual
[6] = contact time 60 minutes, chlorine dioxide 0.5 ppm free residual
[7] = contact time 10 minutes, TTPC 3.125 ppm active
[8] = contact time 10 minutes, TTPC 6.25 ppm active
[9] = contact time 30 minutes, TTPC 3.125 ppm active
[10] = contact time 30 minutes, TTPC 6.25 ppm active
[11] = contact time 60 minutes, TTPC 3.125 ppm active
[12] = contact time 60 minutes, TTPC 6.25 ppm active

Structure (SMILES): [O][Cl+][O-] [chlorine dioxide]
- Log 10 Reduction Anaerobes (Desulfovibrio vulgaris; [1]): 3
- Log 10 Reduction Anaerobes (Desulfovibrio vulgaris; [2]): 4
- Log 10 Reduction Anaerobes (Desulfovibrio vulgaris; [3]): 3
- Log 10 Reduction Anaerobes (Desulfovibrio vulgaris; [4]): 5
- Log 10 Reduction Anaerobes (Desulfovibrio vulgaris; [5]): 3
- Log 10 Reduction Anaerobes (Desulfovibrio vulgaris; [6]): 5
- effectiveness against anaerobes (in words) (Desulfovibrio vulgaris): effective
- Log 10 Reduction Facultative Anaerobes (Enterobacter aerogenes; [1]): 3
- Log 10 Reduction Facultative Anaerobes (Enterobacter aerogenes; [2]): 6
- Log 10 Reduction Facultative Anaerobes (Enterobacter aerogenes; [3]): 3
- Log 10 Reduction Facultative Anaerobes (Enterobacter aerogenes; [4]): 6
- Log 10 Reduction Facultative Anaerobes (Enterobacter aerogenes; [5]): 3
- Log 10 Reduction Facultative Anaerobes (Enterobacter aerogenes; [6]): 6
- effectiveness against aerobes (in words) (Enterobacter aerogenes): effective

Structure (SMILES): CCCCCCCCCCCCCC[P+](CCCC)(CCCC)CCCC.[Cl-] [TTPC, tri n-butyl n-tetradecyl phosphonium chloride]
- Log 10 Reduction Anaerobes (Desulfovibrio vulgaris; [7]): 0
- Log 10 Reduction Anaerobes (Desulfovibrio vulgaris; [8]): 0
- Log 10 Reduction Anaerobes (Desulfovibrio vulgaris; [9]): 0
- Log 10 Reduction Anaerobes (Desulfovibrio vulgaris; [10]): 2
- Log 10 Reduction Anaerobes (Desulfovibrio vulgaris; [11]): 0
- Log 10 Reduction Anaerobes (Desulfovibrio vulgaris; [12]): 5
- effectiveness against anaerobes (in words) (Desulfovibrio vulgaris): ineffective
- Log 10 Reduction Facultative Anaerobes (Enterobacter aerogenes; [7]): 0
- Log 10 Reduction Facultative Anaerobes (Enterobacter aerogenes; [8]): 0
- Log 10 Reduction Facultative Anaerobes (Enterobacter aerogenes; [9]): 0
- Log 10 Reduction Facultative Anaerobes (Enterobacter aerogenes; [10]): 1
- Log 10 Reduction Facultative Anaerobes (Enterobacter aerogenes; [11]): 0
- Log 10 Reduction Facultative Anaerobes (Enterobacter aerogenes; [12]): 1
- effectiveness against aerobes (in words) (Enterobacter aerogenes): ineffective
